From patent publication US8846933B2, “N-link hydroxamic acid derivatives useful as antibacterial agents” (Pfizer Inc., priority 2009, dated 2014)

Key:
[1] = tested on: Escherichia coli EC-1: VOGEL, mouse virulent; experiment: MIC determination (CLSI), strain EC-1; assay type: cell-based; conditions: strain EC-1, unit assumed
Summary of the method: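 The mouse-virulent VOGEL isolate of E. coli, EC-1, served as test organism. Minimum inhibitory concentration was measured by CLSI dilution methodology (M7-A7; M100-S18 standards).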

[2] = tested on: Pseudomonas aeruginosa UI-18: Wild-type (PA-7); experiment: MIC determination (CLSI), strain PA-7; assay type: cell-based; conditions: strain PA-7, unit assumed
Summary of the method: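 Strain tested was P. aeruginosa UI-18, a wild-type isolate labelled PA-7. Minimum inhibitory concentrations followed CLSI dilution methodology for aerobically growing bacteria (M7-A7, M100-S18).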

[3] = generated in the same manner as in Table 4

C[C@@](CCn1ccc(-c2ccccc2Cl)cc1=O)(C(=O)NO)S(C)(=O)=O [Example 341, (2R)-4-[4-(2-chlorophenyl)-2-oxopyridin-1(2H)-yl]-N-hydroxy-2-methyl-2-(methylsulfonyl)butanamide]
EC-1 (MIC) [1]: 4 µg/mL | PA-7 (MIC) [2]: 2 µg/mL

CC(CCn1ccc(-c2cccc(CO)c2)cc1=O)(C(=O)NO)S(C)(=O)=O (centres unmarked) [Example 144, N-hydroxy-4-{4-[3-(hydroxymethyl)phenyl]-2-oxopyridin-1(2H)-yl}-2-methyl-2-(methylsulfonyl)butanamide]
EC-1 (MIC) [1, 3]: > 64 µg/mL | PA-7 (MIC) [2, 3]: > 64 µg/mL

CC(CCn1ccc(-c2cccc(Cl)c2Cl)cc1=O)(C(=O)NO)S(C)(=O)=O (centres unmarked) [Example 163, 4-[4-(2,3-dichlorophenyl)-2-oxopyridin-1(2H)-yl]-N-hydroxy-2-methyl-2-(methylsulfonyl)butanamide]
EC-1 (MIC) [1, 3]: 0.5 µg/mL | PA-7 (MIC) [2, 3]: 1 µg/mL

CC(CCn1ccc(-c2ccc3c(c2)CCO3)cc1=O)(C(=O)NO)S(C)(=O)=O (centres unmarked) [Example 164, 4-[4-(2,3-dihydro-1-benzofuran-5-yl)-2-oxopyridin-1(2H)-yl]-N-hydroxy-2-methyl-2-(methylsulfonyl)butanamide]
EC-1 (MIC) [1, 3]: 8 µg/mL | PA-7 (MIC) [2, 3]: 32 µg/mL

C[C@@](CCn1ccc(-c2ccc(C3(O)CCC3)cc2)cc1=O)(C(=O)NO)S(C)(=O)=O [Example 351, (2R)-N-hydroxy-4-{4-[4-(1-hydroxycyclobutyl)phenyl]-2-oxopyridin-1(2H)-yl}-2-methyl-2-(methylsulfonyl)butanamide]
EC-1 (MIC) [1]: 16 µg/mL | PA-7 (MIC) [2]: 16 µg/mL

CCNC(=O)c1ccc(-c2ccn(CCC(C)(C(=O)NO)S(C)(=O)=O)c(=O)c2)cc1F (centres unmarked) [Example 177, N-ethyl-2-fluoro-4-{1-[4-(hydroxyamino)-3-methyl-3-(methylsulfonyl)-4-oxobutyl]-2-oxo-1,2-dihydropyridin-4-yl}benzamide]
EC-1 (MIC) [1, 3]: > 64 µg/mL | PA-7 (MIC) [2, 3]: 64 µg/mL

Cc1cc2cc(-c3ccn(CCC(C)(C(=O)NO)S(C)(=O)=O)c(=O)c3)ccc2[nH]1 (centres unmarked) [Example 256, N-hydroxy-2-methyl-4-[4-(2-methyl-1H-indol-5-yl)-2-oxopyridin-1(2H)-yl]-2-(methylsulfonyl)butanamide]
EC-1 (MIC) [1]: 1 µg/mL | PA-7 (MIC) [2]: 4 µg/mL

CC(CCn1ccc(-c2ccc3ncccc3c2)cc1=O)(C(=O)NO)S(C)(=O)=O (centres unmarked) [Example 254]
EC-1 (MIC) [1]: 4 µg/mL | PA-7 (MIC) [2]: 4 µg/mL

Cc1ccc(-c2ccn(CC[C@](C)(C(=O)NO)S(C)(=O)=O)c(=O)c2)cc1C#N [Example 476]
EC-1 (MIC) [1]: 16 µg/mL | PA-7 (MIC) [2]: 8 µg/mL

CC(CCn1ccc(-c2cnc3ccccc3c2)cc1=O)(C(=O)NO)S(C)(=O)=O (centres unmarked) [Example 124, N-hydroxy-2-methyl-2-(methylsulfonyl)-4-(2-oxo-4-quinolin-3-ylpyridin-1(2H)-yl)butanamide]
EC-1 (MIC) [1, 3]: 16 µg/mL | PA-7 (MIC) [2, 3]: 16 µg/mL

CC(CCn1ccc(OCCCC2CCCC2)cc1=O)(C(=O)NO)S(C)(=O)=O (centres unmarked) [Example 488, 4-[4-(3-cyclopentylpropoxy)-2-oxopyridin-1(2H)-yl]-N-hydroxy-2-methyl-2-(methylsulfonyl)butanamide]
EC-1 (MIC) [1]: 8 µg/mL | PA-7 (MIC) [2]: 64 µg/mL

COc1ccc(-c2ccn(CCC(C)(C(=O)NO)S(C)(=O)=O)c(=O)c2)c(F)c1F (centres unmarked) [Example 123, 4-[4-(2,3-difluoro-4-methoxyphenyl)-2-oxopyridin-1(2H)-yl]-N-hydroxy-2-methyl-2-(methylsulfonyl)butanamide]
EC-1 (MIC) [1, 3]: 2 µg/mL | PA-7 (MIC) [2, 3]: 2 µg/mL

Cc1c(-c2cccc(Cl)c2Cl)ccn(CC[C@](C)(C(=O)NO)S(C)(=O)=O)c1=O [Example 414, (2R)-4-[4-(2,3-dichlorophenyl)-3-methyl-2-oxopyridin-1(2H)-yl]-N-hydroxy-2-methyl-2-(methylsulfonyl)butanamide]
EC-1 (MIC) [1]: 2 µg/mL | PA-7 (MIC) [2]: 8 µg/mL

Cc1cc(-c2ccccc2)cc(=O)n1CCC(C)(C(=O)NO)S(C)(=O)=O (centres unmarked) [Example 220, N-hydroxy-2-methyl-4-(6-methyl-2-oxo-4-phenylpyridin-1(2H)-yl)-2-(methylsulfonyl)butanamide]
EC-1 (MIC) [1]: > 64 µg/mL | PA-7 (MIC) [2]: > 64 µg/mL

COc1ccc(-c2ccn(CC[C@](C)(C(=O)NO)S(C)(=O)=O)c(=O)c2)c(C)c1 [Example 345, (2R)-N-hydroxy-4-[4-(4-methoxy-2-methylphenyl)-2-oxopyridin-1(2H)-yl]-2-methyl-2-(methylsulfonyl)butanamide]
EC-1 (MIC) [1]: 4 µg/mL | PA-7 (MIC) [2]: 4 µg/mL

CC(=O)c1ccccc1-c1ccn(CCC(C)(C(=O)NO)S(C)(=O)=O)c(=O)c1 (centres unmarked) [Example 140, 4-[4-(2-acetylphenyl)-2-oxopyridin-1(2H)-yl]-N-hydroxy-2-methyl-2-(methylsulfonyl)butanamide]
EC-1 (MIC) [1, 3]: > 64 µg/mL | PA-7 (MIC) [2, 3]: > 64 µg/mL

CC(CCn1ccc(-c2ccc(OCCO)cc2Cl)cc1=O)(C(=O)NO)S(C)(=O)=O (centres unmarked) [Example 232, 4-{4-[2-chloro-4-(2-hydroxyethoxy)phenyl]-2-oxopyridin-1(2H)-yl}-N-hydroxy-2-methyl-2-(methylsulfonyl)butanamide]
EC-1 (MIC) [1]: 16 µg/mL | PA-7 (MIC) [2]: 16 µg/mL

CC(CCn1ccc(-c2ccc(OCCCO)cc2F)cc1=O)(C(=O)NO)S(C)(=O)=O (centres unmarked) [Example 250, 4-{4-[2-fluoro-4-(3-hydroxypropoxy)phenyl]-2-oxopyridin-1(2H)-yl}-N-hydroxy-2-methyl-2-(methylsulfonyl)butanamide]
EC-1 (MIC) [1]: 2 µg/mL | PA-7 (MIC) [2]: 4 µg/mL

COc1cnc(-c2ccc(-c3ccn(CC[C@](C)(C(=O)NO)S(C)(=O)=O)c(=O)c3)cc2)nc1 [Example 387, (2R)-N-hydroxy-4-{4-[4-(5-methoxypyrimidin-2-yl)phenyl]-2-oxopyridin-1(2H)-yl}-2-methyl-2-(methylsulfonyl)butanamide]
EC-1 (MIC) [1]: 0.06 µg/mL | PA-7 (MIC) [2]: 0.5 µg/mL

CC(CCn1ccc(-c2cccc(OCCCO)c2F)cc1=O)(C(=O)NO)S(C)(=O)=O (centres unmarked) [Example 307, 4-{4-[2-fluoro-3-(3-hydroxypropoxy)phenyl]-2-oxopyridin-1(2H)-yl}-N-hydroxy-2-methyl-2-(methylsulfonyl)butanamide]
EC-1 (MIC) [1]: 16 µg/mL | PA-7 (MIC) [2]: 16 µg/mL

CC(CCn1ccc(-c2ccc(OCCCn3cncn3)c(Cl)c2)cc1=O)(C(=O)NO)S(C)(=O)=O (centres unmarked) [Example 290, 4-[4-{3-chloro-4-[3-(1H-1,2,4-triazol-1-yl)propoxy]phenyl}-2-oxopyridin-1(2H)-yl]-N-hydroxy-2-methyl-2-(methylsulfonyl)butanamide]
EC-1 (MIC) [1]: 16 µg/mL | PA-7 (MIC) [2]: 16 µg/mL

COc1cc(-c2ccn(CCC(C)(C(=O)NO)S(C)(=O)=O)c(=O)c2)ccc1OCCCCO (centres unmarked) [Example 242, N-hydroxy-4-{4-[4-(4-hydroxybutoxy)-3-methoxyphenyl]-2-oxopyridin-1(2H)-yl}-2-methyl-2-(methylsulfonyl)butanamide]
EC-1 (MIC) [1]: 32 µg/mL | PA-7 (MIC) [2]: 64 µg/mL

Cc1nnn(-c2ccc(-c3ccn(CC[C@](C)(C(=O)NO)S(C)(=O)=O)c(=O)c3)cc2)c1C [Example 416, (2R)-4-{4-[4-(4,5-dimethyl-1H-1,2,3-triazol-1-yl)phenyl]-2-oxopyridin-1(2H)-yl}-N-hydroxy-2-methyl-2-(methylsulfonyl)butanamide]
EC-1 (MIC) [1]: 64 µg/mL | PA-7 (MIC) [2]: 32 µg/mL

CN(C)S(=O)(=O)c1cccc(-c2ccn(CCC(C)(C(=O)NO)S(C)(=O)=O)c(=O)c2)c1 (centres unmarked) [Example 148, 4-[4-{3-[(dimethylamino)sulfonyl]phenyl}-2-oxopyridin-1(2H)-yl]-N-hydroxy-2-methyl-2-(methylsulfonyl)butanamide]
EC-1 (MIC) [1, 3]: 64 µg/mL | PA-7 (MIC) [2, 3]: > 64 µg/mL

CC1CC(=O)Nc2ccc(-c3ccn(CCC(C)(C(=O)NO)S(C)(=O)=O)c(=O)c3)cc21 (mixture of isomers) [Example 484]
EC-1 (MIC) [1]: > 64 µg/mL | PA-7 (MIC) [2]: > 64 µg/mL

CC(CCn1ccc(-c2ccc(OCCCO)c(Cl)c2)cc1=O)(C(=O)NO)S(C)(=O)=O (centres unmarked) [Example 246, 4-{4-[3-chloro-4-(3-hydroxypropoxy)phenyl]-2-oxopyridin-1(2H)-yl}-N-hydroxy-2-methyl-2-(methylsulfonyl)butanamide]
EC-1 (MIC) [1]: 2 µg/mL | PA-7 (MIC) [2]: 4 µg/mL

C[C@@](CCn1ccc(-c2ccc(-n3ccnn3)cc2)cc1=O)(C(=O)NO)S(C)(=O)=O [Example 364, (2R)-N-hydroxy-2-methyl-2-(methylsulfonyl)-4-{2-oxo-4-[4-(1H-1,2,3-triazol-1-yl)phenyl]pyridin-1(2H)-yl}butanamide]
EC-1 (MIC) [1]: 16 µg/mL | PA-7 (MIC) [2]: 16 µg/mL

CC(CCn1ccc(-c2ccc(OCCc3ccccn3)cc2)cc1=O)(C(=O)NO)S(C)(=O)=O (centres unmarked) [Example 272, N-hydroxy-2-methyl-2-(methylsulfonyl)-4-{2-oxo-4-[4-(2-pyridin-2-ylethoxy)phenyl]pyridin-1(2H)-yl}butanamide]
EC-1 (MIC) [1]: 0.5 µg/mL | PA-7 (MIC) [2]: 2 µg/mL

Cc1cc(-c2ccn(CCC(C)(C(=O)NO)S(C)(=O)=O)c(=O)c2)ccc1OCCCO (centres unmarked) [Example 248, N-hydroxy-4-{4-[4-(3-hydroxypropoxy)-3-methylphenyl]-2-oxopyridin-1(2H)-yl}-2-methyl-2-(methylsulfonyl)butanamide]
EC-1 (MIC) [1]: 2 µg/mL | PA-7 (MIC) [2]: 4 µg/mL

COc1ccc(-c2ccn(CC[C@](C)(C(=O)NO)S(C)(=O)=O)c(=O)c2)c(Cl)c1Cl [Example 452, (2R)-4-[4-(2,3-dichloro-4-methoxyphenyl)-2-oxopyridin-1(2H)-yl]-N-hydroxy-2-methyl-2-(methylsulfonyl)butanamide]
EC-1 (MIC) [1]: 4 µg/mL | PA-7 (MIC) [2]: 2 µg/mL

CC(CCn1ccc(-c2ccc(C(F)(F)CO)cc2)cc1=O)(C(=O)NO)S(C)(=O)=O (centres unmarked) [Example 69, 4-{4-[4-(1,1-difluoro-2-hydroxyethyl)phenyl]-2-oxopyridin-1(2H)-yl}-N-hydroxy-2-methyl-2-(methylsulfonyl)butanamide]
EC-1 (MIC) [1, 3]: 4 µg/mL | PA-7 (MIC) [2, 3]: 16 µg/mL
